Usually Kd stands for the free concentration of one partner at which half of the binding sites on the other are occupied at equilibrium, for simple one-to-one binding.

For the assay, the target named is MBL Monoclonal anti-phosphotyrosine antibody (clone 6D12). The assay can be described thus: Competitive displacement of P-Tyr-F from MBL antibody, fluorescence quenching. The settings on record: displacement of P-Tyr-F 1.7 nM from MBL antibody 7.1 nM sites, nM sites (normality), read-out: MBL Monoclonal Kd, nM Φ. Type of assay: binding. As for the experimental part:
FIGS. 5A and 5B: […] MBL antibody, 7.1 nM sites and P-Tyr-F, 1.7 nM were preincubated, and displacement initiated by the addition of a concentrated solution of phosphotyrosine. The increase in emission intensity and decrease in FP were monitored as a function of added phosphoryltyrosine. The data were analyzed as described in FIG. 3. FIGS. 7A, 7B, 7C, and 7D: FIGS. 7A, 7B, 7C, and 7D are graphs showing the competitive displacement of P-Tyr-F from MBL antibody by phosphorylated JAK-2 peptide substrates JAK-2(a) (FIGS. 7A and 7B) and JAK-2(b) (FIGS. 7C and 7D). All procedures were as described in FIG. 5. For both peptides, fixed antibody=7.1 nM sites and P-Tyr-F=1.7 nM. Antibody binding to the fluoresceinated phosphorylamino acids was monitored by adding successive small volumes of the antibody stock solution to a cuvette containing a fixed amount of fluoresceinated phosphorylamino acid in two milliliters of pH 7.4 buffer (25 mM Tris and 25 mM NaCl adjusted to pH 7.4 with HCl). The fluorescence polarization, anisotropy, and the intensity—the sum of vertically and horizontally polarized emissions—were recorded one minute after each addition. The dilution produced by the addition of the antibody necessitated a slight correction for both the concentrations and the intensity readings but not for the polarization since the latter is independent of the fluorophore concentration. […]

Turning to `NC(Cc1ccc(OP(=O)(O)O)cc1)C(=O)O` (stereo not shown) [Phosphoryltyrosine], the Kd came to 5.4 ± 0.5 nM.
